In the case of `CCOCc1nc2c(N)nc3ccccc3c2n1Cc1ccccc1`, the melting point is reported as 204 to 205 °C.
`CCNC(=O)c1cc(NS(=O)(=O)c2ccc(I)cc2)ccc1Oc1cncc(Cl)c1` gave a melting point of 154 to 156 °C.
In the case of `O=C(CCCCC1CCSS1)Nc1nc(=S)ss1` (stereo unspecified), the melting point is reported as 158 to 161 °C.
`CC(C)c1cc(Cl)cc(C(C)C)c1NC(=O)NS(=O)(=O)c1cc(C2(C)OCCO2)ccc1F` showed a melting point of 168 to 170 °C.
`CS(=O)(=O)c1ccc(-c2ccccc2[N+](=O)[O-])cc1` gave a melting point of 178 °C.
For `COC(=O)Cc1csc(NS(=O)(=O)c2cccc(Cl)c2C)n1`, the melting point was 187 °C.
`COC(=O)C(C)Oc1ccc(Nc2cc(NC(C)=O)c(F)cc2[N+](=O)[O-])cc1` (stereo unspecified) showed a melting point of 126 to 128 °C.
In the case of `COC1(OCCCCl)C=CC(C(=O)O)=CC1` (stereo unspecified), the melting point is reported as 157 to 159 °C.
Work on `CCCCCCCCCCCCCCOc1ccc(C(=O)Nc2cccc(CBr)c2)cc1` yielded a melting point of 116 to 118 °C.
Compound `Cc1cc([N+](=O)[O-])c(C(=O)O)cc1F` has a melting point of 163 to 165 °C.
For `CCOC(NC(=O)c1snc(Cl)c1Cl)C(F)(F)F` (stereo unspecified), the melting point was 99 to 101 °C.
In the case of `CN(c1ccc(CC(=O)O)cc1)c1cc(C(C)(C)C)c(O)c(C(C)(C)C)c1`, the melting point is reported as 181 to 182 °C.
For `CC1(C)C(=O)NC(c2ccc(NC(=O)CCl)cc2)c2ccccc21` (stereo unspecified), the melting point was 218 to 219 °C.
In the case of `CNC(=O)c1c(-c2ccccc2)noc1CC(=O)c1ccccc1`, the melting point is reported as 125 to 128 °C.
For `CC1CCCN(c2cc(F)cc(C(=O)Nc3ccc(OCCN4CCOCC4)c4ccccc34)c2)C1` (stereo unspecified), the melting point was 145 to 148 °C.
With `CN(C)S(=O)(=O)c1ccc(C(F)(F)F)cc1N` the melting point was 65 to 70 °C.
`COc1ccc(C(=O)OC2C=C(C)C(=O)CC(C)(C)C2OC(C)=O)cc1` (stereo unspecified) gave a melting point of 93 to 94 °C.
`NC(=O)CN1C(=O)[C@@H](NC(=O)c2cc3ccccc3[nH]2)[C@H](c2ccccc2)Sc2ccccc21` (relative stereo) showed a melting point of 222 to 225 °C.
`CC(C)CC(=O)Nc1cccc(-c2ccnc3c(-c4cccc(Cl)c4Cl)cnn23)c1` showed a melting point of 154 to 156 °C.
For `COc1ccc(CCN2CCC(C(O)c3ccc(NS(C)(=O)=O)cc3)CC2)cc1` (stereo unspecified), the melting point was 40 to 48 °C.
For `COc1cc(-n2nc(C#N)cc2-c2ccc(S(C)(=O)=O)cc2)ccc1Cl`, the melting point was 203 to 205 °C.
With `O=C(O)C=CC(=O)Oc1ccc(Nc2ccccc2)cc1` the melting point was 139 to 142 °C.
`O=C(O)CCc1ccccc1OCCCCCOc1ccc2c(c1CCCc1ccccc1)OCCC2=O` showed a melting point of 98 to 99 °C.
In the case of `COc1cc(OC)c(C(=O)N2CCc3cc(O)ccc3C2)cc1OC`, the melting point is reported as 180 to 188 °C.
With `O=C(O)C=C1CCC(n2nc(-c3c(-c4ccccc4)nn4ccccc34)ccc2=O)CC1` (stereo unspecified) the melting point was 188 to 190 °C.
Work on `CCOC(=O)CCCN(C(=O)c1ccc(F)cc1)c1ccccc1-c1ccccc1` yielded a melting point of 83 to 84 °C.
`CC(=O)N(C(C)=O)c1nc2n(n1)Cc1ccccc1-2` showed a melting point of 174 to 176 °C.
`Cc1ccc(OCCC(C(=O)O)c2ccccc2)c2ccccc12` (stereo unspecified) showed a melting point of 130 to 132 °C.
`CCOc1cc(-c2cnc3[nH]cc(C(=O)C(C)(C)C)c3n2)cc(N2CCCC2)c1` gave a melting point of 236 to 237 °C.
In the case of `NS(=O)(=O)c1cc(C(=O)O)cc(CCn2cccc2)c1Cl`, the melting point is reported as 224 to 228 °C.
With `COc1ccc(S(=O)(=O)C2(C(=O)O)CCN(C3CCCCCCC3)CC2)cc1` the melting point was 180 °C.
`Cc1cn(N=Cc2cccnc2)c(=O)[nH]1` showed a melting point of 200 to 202 °C.
Compound `C=CCOC(=O)N1CCCC(OC)C1CC(=O)Cn1cnc2cc(Br)c(Cl)cc2c1=O` (stereo unspecified) has a melting point of 112 °C.
Work on `CC(C)CC1(C(CC(C)N2C(=O)c3ccccc3C2=O)C(=O)NO)CCN(CCc2ccccc2)C1=O` (stereo unspecified) yielded a melting point of 113 to 114 °C.
For `COc1cc(OC)n2nc(NS(=O)(=O)c3c(Cl)cccc3Cl)nc2n1`, the melting point was 211 to 213 °C.
Compound `CN1CCN(Cc2cnc(S)n2Cc2cc(F)cc(F)c2)CC1` has a melting point of 200 to 201 °C.
`O=C(O)CCc1ccc(OCc2ccc(CN(CCc3ccccc3)c3nc(-c4ccccc4)cs3)cc2)cc1` gave a melting point of 114 to 115 °C.
In the case of `O=S(=O)(O)c1cccc2c1ccc1nc(O)c(O)nc12`, the melting point is reported as > 300 °C.
For `Cc1oc(-c2ccc(C(F)(F)F)cc2)nc1CCOc1ccc(CN(O)C(N)=O)cc1F`, the melting point was 144 to 146 °C.
`CC1CCc2c(c3cc(Br)ccc3n2C(=O)OC(C)(C)C)C1` (stereo unspecified) gave a melting point of 122 °C.
With `O=C1N=C2C(=O)SC=C2N1` the melting point was 177 to 180 °C.
Work on `COc1ccc(CN[C@@H](C(=O)O)[C@@H](O)[C@H](Cc2ccccc2)NC(=O)OC(C)(C)C)cc1` yielded a melting point of 203 to 206 °C.
In the case of `CCCCC(=O)/C=C/c1ccccc1`, the melting point is reported as 32 to 32.5 °C.
`CCOC(=O)C1=C(COCCCCO)NC(C)=C(C(=O)OC)C1c1cccc(Cl)c1Cl` (stereo unspecified) gave a melting point of 103 to 104 °C.
`Oc1ccc(NCC2Cc3ccccc3C2)cc1` showed a melting point of 106 to 109 °C.
Work on `COc1cc(Nc2c(C#N)cnc3cc(I)sc23)cc(OC)c1OC` yielded a melting point of 254 to 256 °C.
Work on `CNC(=C[N+](=O)[O-])NCCCCOc1cccc(CCCN(C)C)c1` yielded a melting point of 79 to 80.5 °C.
`O=C1NCCCc2ccc([N+](=O)[O-])cc21` gave a melting point of 177 to 180 °C.
Work on `CN1C(=O)c2c(n3cncc3c3[nH]c4ncccc4c23)C1=O` yielded a melting point of 304 to 307 °C.
With `COc1cccc(OC)c1-c1cc(C(=O)N[C@H](C(=O)O)C2CCCCC2)nn1-c1ccc(C(N)=O)c2ccccc12` the melting point was 186 °C.
With `CCNc1nc(Nc2ccccc2)ncc1C(C)=CC(=O)OCC` the melting point was 148 to 150 °C.
Compound `CCN(CC)C(=O)SC1(C(=O)N(CC)CC)C=CC=NC1F` (stereo unspecified) has a melting point of 87 to 88 °C.
Work on `COc1cc(OC)c(-c2cccs2)cc1/C=C/C(=O)c1ccc(S(=O)(=O)Nc2nccs2)cc1` yielded a melting point of 220 to 221 °C.
In the case of `NCCCc1cn(S(=O)(=O)c2c(Cl)nc3sccn23)c2ccc(F)cc12`, the melting point is reported as 139 to 141 °C.
For `Cc1csc(NC(=O)N(C)C)n1`, the melting point was 97 to 98 °C.
With `O=c1[nH]c2sc3c(F)cccc3c2[nH]c1=O` the melting point was > 35 °C.
`Cc1cc(-c2cccc(NC(=O)C3CC3)c2)n2ncc(C(=O)c3cccs3)c2n1` showed a melting point of 184 to 186 °C.
Work on `O=C(CCCN1CCN(c2cc3ccccc3cn2)CC1)c1ccc(F)cc1` yielded a melting point of 148 to 150 °C.
For `CCCCn1c(=O)c2nc(-c3ccc(/C=C/C(=O)O)cc3)[nH]c2n(C)c1=O`, the melting point was > 300 °C.
With `O=C(CS)Nc1ccc(C(=O)NCCO)cc1` the melting point was 184 to 186 °C.
`NS(=O)(=O)c1nc(-c2cccc(Cl)c2)ns1` gave a melting point of 182 to 184 °C.
In the case of `COCCN(c1cccc2cc(C(=O)NCCSC(c3ccccc3)(c3ccccc3)c3ccccc3)[nH]c12)S(=O)(=O)c1cccs1`, the melting point is reported as 65 to 66 °C.
Work on `O=Cc1ccc(OCc2coc(/C=C/c3ccc(S(=O)C(F)(F)F)cc3)n2)cc1` (stereo unspecified) yielded a melting point of 144 to 147 °C.
Compound `C#CCc1c(C)nc2c(OCc3ccccc3C)nccn12` has a melting point of 123 to 124 °C.
`COc1ccc(C2(CC(=O)O)CNC(=O)C2)cc1OC` (stereo unspecified) showed a melting point of 162 to 165 °C.
In the case of `CCCCc1c(C(=O)OCC)sc2ccc([N+](=O)[O-])cc12`, the melting point is reported as 92 to 93 °C.
In the case of `C=C(c1ccccc1OCCCCl)c1cccc2[nH]ccc12`, the melting point is reported as 70 to 72 °C.
`CC(C)CCOc1c(Cl)c(Sc2ccccc2N)c(OCCC(C)C)c2c1C(=N)NC2=N` showed a melting point of 175 to 176 °C.
Work on `Ic1cccc2c(SSc3cccc4c(I)cccc34)cccc12` yielded a melting point of 202 to 203 °C.
Work on `CCOc1ccc2c(c1)c(-c1ccc3c(c1)OCO3)c(C(=O)OC)c(=O)n2Cc1ccccc1OC` yielded a melting point of 157 to 158 °C.
In the case of `Clc1nccc(Nc2cnc3ccccc3c2)n1`, the melting point is reported as 140 to 143 °C.
With `CCOC(=O)CN=C(c1ccccc1)c1ccccc1NC1CCN(C)CC1` the melting point was 102 to 103 °C.
`CN1C(=S)Nc2ccncc2S1(=O)=O` gave a melting point of 195 to 198 °C.
Compound `O=C(NCCC1CCN(c2noc3cc(Cl)ccc23)CC1)c1nsc2ccccc12` has a melting point of 132 to 134 °C.
`CC(C)(C)c1ccc(C(CCCN2CCC(=NO)CC2)OC2CCCCO2)cc1` (stereo unspecified) gave a melting point of 150 to 151 °C.
Compound `CC(C)c1ccc(-c2csc(-c3ccc(C(=O)O)cc3)n2)cc1` has a melting point of 257 to 258 °C.
Compound `CCN(C=CC(=O)c1cccnc1)CC` has a melting point of 193 to 195 °C.
`COC(=O)NCC1Cc2cc(Cl)c3ccccc3c2O1` (stereo unspecified) gave a melting point of 128 to 130 °C.
`CNC(=O)c1ccc(C(=O)OC)cc1[N+](=O)[O-]` gave a melting point of 155 °C.
With `Nc1cc(-n2cc(C(=O)O)c(=O)c3cc(F)c(N4CC(N)C4)c(Cl)c32)ncc1F` the melting point was 280 °C.
`CCCCN1C(=O)NC(Cc2ccc(C#N)cc2)C1=O` (stereo unspecified) gave a melting point of 136 °C.
Compound `CCCCCCCCCCN(O)C(=O)NCCCCCCC(=O)OC` has a melting point of 81 to 82 °C.
In the case of `CCCCCOc1ccc(C#N)cc1-c1cc(C(=N)Nc2cccc(C(F)(F)F)c2)ccc1OCCCCC`, the melting point is reported as 74 to 75 °C.
Compound `COc1cc(C(C)C)c2c(c1)S(=O)(=O)N(COc1cc(=O)n3c(n1)CCCC3)C2=O` has a melting point of 184 to 186 °C.
In the case of `COC(=O)N1CCC2=NNC(=O)CC2C1` (stereo unspecified), the melting point is reported as 163 to 165 °C.
Compound `CCCN(c1nc(-c2ccc(OC)cc2Cl)c(C)s1)c1cc([N+](=O)[O-])ccc1OC` has a melting point of 97 °C.
For `O=c1[nH]nnn1-c1ccc([N+](=O)[O-])cc1F`, the melting point was 148 to 150 °C.
`COc1cc2ccc(C)cc2c(C)c1OC` showed a melting point of 68 to 69 °C.
`Cc1oc(-c2ccccc2)nc1COc1ccc(/C=C/CO)cc1C(F)(F)F` showed a melting point of 152 to 153 °C.
For `Clc1ccc2c(c1)CSc1ccccc1O2`, the melting point was 66.8 °C.
Compound `Cc1c(C)c(N2CCN(c3ccc(S(C)(=O)=O)cc3)CC2)c(C)c2c1OC(C)(C)C2` has a melting point of 256 to 260 °C.
For `Cn1nnc(-c2ccc3c(c2)c(C2=CCN(CCc4nnnn4C)CC2)cn3-c2ccc(F)cc2)n1`, the melting point was 171 to 173 °C.
For `COC(=O)C(C)(C)Nc1ncc(I)cc1[N+](=O)[O-]`, the melting point was 121 to 122 °C.
Compound `CCCCCCNc1nc(-c2ccc(F)cc2)c(-c2ccc(S(C)(=O)=O)cc2)s1` has a melting point of 161 to 162 °C.
`Cc1ccc(S(=O)(=O)N[C@@H](C)C(=O)O)cc1` gave a melting point of 134 to 135 °C.
`O=c1c(-c2cccc(F)c2)coc2c(O)c(O)ccc12` gave a melting point of 230 °C.
Compound `NC(=O)ON(Cc1ccccc1)Cc1ccccc1` has a melting point of 127 to 129 °C.
In the case of `CC[C@H]1COC(=O)N1c1nc(-c2ccc(C#N)cc2)c(F)s1`, the melting point is reported as 157 to 159 °C.
`Cc1ccccc1-c1c(CNC(=O)Nc2ccc(F)cc2F)oc2ccc(Cl)cc12` gave a melting point of 178 to 180 °C.
`Cc1oc(C=Cc2cccc(C(F)(F)F)c2)nc1CO` gave a melting point of 134 to 135 °C.
`CC1N(CCCCCl)C(=O)C(C)(C)S1(=O)=O` (stereo unspecified) showed a melting point of 71 to 73 °C.

Reference: a melting point compilation (Tetko et al.; mined from patent text by program, amines drawn as free bases though some values may be those of a salt)
